Source: patent publication US9695155B2, “Herbicidal substituted pyrimidinyloxy benzene compounds” (E. I. DU PONT DE NEMOURS AND COMPANY, priority 2013, dated 2017)

How the values were obtained:
barnyardgrass [1] = assay: Test B flooded paddy test; type: in vivo, Echinochloa crus-galli; conditions: Flood, 250 g ai/ha; 0 to 100 scale where 0 is no effect and 100 is complete control
Summary of the method: (§1)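 Post-emergence paddy-water application at the 2-leaf stage, with 3 cm flood kept for the whole test. Response was judged visually relative to controls after 13 to 15 greenhouse days, 0 indicating no effect and 100 complete control.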

Italian ryegrass = assay: Test C postemergence; type: in vivo, Lolium multiflorum
Summary of the method: (§2)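 Rated visually on 0–100 (100 = complete control) after 13–15 days under glass. Treatments went onto freshly seeded loam/sand soil or onto emerged plants at the 1- to 4-leaf stage, using a surfactant-containing solvent formulation.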

morningglory [2] = assay: Test A preemergence; type: in vivo, Ipomoea spp.; conditions: for Morningglory plant response rating: 500 g ai/ha
Summary of the method: (§3)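 Visual injury scored 0–100 (100 = complete control) against untreated controls about 10 days after treatment in a greenhouse. Test chemicals, formulated with surfactant in non-phytotoxic solvent, were sprayed on soil preemergence or on 2-10 cm, one- to two-leaf plants postemergence.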

barnyardgrass [3] = assay: Test A preemergence; type: in vivo, Echinochloa crus-galli; conditions: for Barnyardgrass plant response rating: 500 g ai/ha
Summary of the method: as §3

large (Lg) crabgrass = assay: Test C postemergence; type: in vivo, Digitaria sanguinalis; conditions: for Crabgrass, Large plant response rating / Plant response rating, Crabgrass, Large: scale 0 to 100 (0 no effect, 100 complete control)
Summary of the method: as §2

chickweed = assay: Test C postemergence; type: in vivo, Stellaria media; conditions: for Chickweed plant response rating / Plant response rating, Chickweed: scale 0 to 100 (0 no effect, 100 complete control)
Summary of the method: as §2

blackgrass = assay: Test C postemergence; type: in vivo, Alopecurus myosuroides; conditions: for Blackgrass plant response rating / Plant response rating, Blackgrass: scale 0 to 100 (0 no effect, 100 complete control)
Summary of the method: as §2

johnsongrass = assay: Test C postemergence; type: in vivo, Sorghum halepense; conditions: for Johnsongrass plant response rating / Plant response rating, Johnsongrass: scale 0 to 100 (0 no effect, 100 complete control)
Summary of the method: as §2

giant foxtail [4] = assay: Test A preemergence; type: in vivo, Setaria faberii; conditions: for Foxtail, Giant plant response rating: 500 g ai/ha
Summary of the method: as §3

corn = assay: Test C postemergence; type: in vivo, Zea mays; conditions: for Corn plant response rating / Plant response rating, Corn: scale 0 to 100 (0 no effect, 100 complete control)
Summary of the method: as §2

giant foxtail [5] = assay: Test C postemergence; type: in vivo, Setaria faberii; conditions: for Foxtail, Giant plant response rating / Plant response rating, Foxtail, Giant: scale 0 to 100 (0 no effect, 100 complete control)
Summary of the method: as §2

morningglory [6] = assay: Test A postemergence; type: in vivo, Ipomoea spp.
Summary of the method: as §3

sedge, umbrella = assay: Test B flooded paddy test; type: in vivo, Cyperus difformis; conditions: Flood, 250 g ai/ha; 0 to 100 scale where 0 is no effect and 100 is complete control
Summary of the method: as §1

pigweed [7] = assay: Test A preemergence; type: in vivo, Amaranthus retroflexus; conditions: for Pigweed plant response rating: 500 g ai/ha
Summary of the method: as §3

pigweed [8] = assay: Test A postemergence; type: in vivo, Amaranthus retroflexus
Summary of the method: as §3

[9] = Postemergence, 31 g ai/ha, scale 0 to 100 (0 no effect, 100 complete control), 13 to 15 days
[10] = Postemergence, 62 g ai/ha, scale 0 to 100 (0 no effect, 100 complete control)
[11] = 125 g ai/ha, 0 to 100 scale where 0 is no effect and 100 is complete control
[12] = 0 to 100 scale, 0 no effect, 100 complete control, approx. 10 days
[13] = 16 g ai/ha, postemergence, visual rating, 13 to 15 days
[14] = Postemergence, 31 g ai/ha, 13 to 15 days
[15] = 500 g ai/ha, 0 to 100 scale where 0 is no effect and 100 is complete control
[16] = 16 g ai/ha, postemergence, 0 is no effect, 100 is complete control
[17] = 0 to 100 scale where 0 is no effect and 100 is complete control
[18] = 31 g ai/ha, postemergence, visual rating, 13 to 15 days
[19] = 125 g ai/ha, postemergence, visual rating
[20] = Postemergence, 62 g ai/ha, 13 to 15 days
[21] = 500 g ai/ha, 0 to 100 scale, 0 no effect, 100 complete control

Structure (SMILES): N#Cc1cccc(Oc2ncc(Cl)cn2)c1-n1cc(OC(F)F)cn1 [Compound 97]
- Plant response rating, Barnyardgrass (barnyardgrass [1]): 40
- Plant response rating (0 to 100), Ryegrass, Italian (Italian ryegrass; 125 g ai/ha, postemergence): 15
- Plant response rating, Ryegrass, Italian (Italian ryegrass; [9]): 5
- Plant response rating, Ryegrass, Italian (Italian ryegrass; [10]): 5
- Plant response rating, Morningglory (morningglory [2]; [11]): 100
- Morningglory plant response rating (morningglory [2]; [12]): 100
- Plant response rating, Barnyardgrass (barnyardgrass [3]; [11]): 80
- Barnyardgrass plant response rating (barnyardgrass [3]; [12]): 100
- Crabgrass, Large plant response rating (large (Lg) crabgrass; [13]): 5
- Plant response rating (0 to 100), Crabgrass, Large (large (Lg) crabgrass; 125 g ai/ha, postemergence): 55
- Plant response rating, Crabgrass, Large (large (Lg) crabgrass; [14]): 10
- Plant response rating, Crabgrass, Large (large (Lg) crabgrass; Postemergence, 62 g ai/ha): 15
- Chickweed plant response rating (chickweed; [13]): 70
- Plant response rating (0 to 100), Chickweed (chickweed; 125 g ai/ha, postemergence): 90
- Plant response rating, Chickweed (chickweed; [14]): 60
- Plant response rating, Chickweed (chickweed; Postemergence, 62 g ai/ha): 80
- Blackgrass plant response rating (blackgrass; [13]): 10
- Plant response rating (0 to 100), Blackgrass (blackgrass; 125 g ai/ha, postemergence): 40
- Plant response rating, Blackgrass (blackgrass; [14]): 5
- Plant response rating, Blackgrass (blackgrass; Postemergence, 62 g ai/ha): 10
- Johnsongrass plant response rating (johnsongrass; [13]): 5
- Plant response rating (0 to 100), Johnsongrass (johnsongrass; 125 g ai/ha, postemergence): 5
- Plant response rating, Johnsongrass (johnsongrass; [14]): 5
- Plant response rating, Johnsongrass (johnsongrass; Postemergence, 62 g ai/ha): 15
- Plant response rating, Foxtail, Giant (giant foxtail [4]; [11]): 100
- Foxtail, Giant plant response rating (giant foxtail [4]; [12]): 100
- Corn plant response rating (corn; [13]): 5
- Plant response rating (0 to 100), Corn (corn; 125 g ai/ha, postemergence): 15
- Plant response rating, Corn (corn; [14]): 5
- Plant response rating, Corn (corn; Postemergence, 62 g ai/ha): 10
- Foxtail, Giant plant response rating (giant foxtail [5]; [13]): 10
- Plant response rating (0 to 100), Foxtail, Giant (giant foxtail [5]; 125 g ai/ha, postemergence): 15
- Plant response rating, Foxtail, Giant (giant foxtail [5]; [14]): 5
- Plant response rating, Foxtail, Giant (giant foxtail [5]; Postemergence, 62 g ai/ha): 10
- Plant response rating, Morningglory (morningglory [6]; [11]): 90
- Plant response rating, Morningglory (morningglory [6]; [15]): 100
- Plant response rating, Sedge, Umbrella (sedge, umbrella): 90
- Plant response rating, Pigweed (pigweed [7]; [11]): 100
- Pigweed plant response rating (pigweed [7]; [12]): 100
- Plant response rating, Pigweed (pigweed [8]; [11]): 100
- Plant response rating, Pigweed (pigweed [8]; [15]): 100

Structure (SMILES): FC(F)c1cnn(-c2c(Cl)cccc2Oc2ncc(Cl)cn2)c1 [Compound 192]
- Plant response rating, Barnyardgrass (barnyardgrass [1]): 0
- Plant response rating (0 to 100), Ryegrass, Italian (Italian ryegrass; [16]): 0
- Ryegrass, Italian plant response rating (Italian ryegrass; 31 g ai/ha, postemergence, visual rating, scale 0 to 100 (0 no effect, 100 complete control), 13 to 15 days): 0
- Plant response rating, Ryegrass, Italian (Italian ryegrass; 125 g ai/ha, postemergence, visual rating, scale 0 to 100 (0 no effect, 100 complete control)): 5
- Plant response rating, Ryegrass, Italian (Italian ryegrass; Postemergence, 62 g ai/ha, scale 0 to 100 (0 no effect, 100 complete control), 13 to 15 days): 5
- Morningglory plant response rating (0 to 100 scale) (morningglory [2]; 125 g ai/ha): 30
- Morningglory plant response rating (morningglory [2]; [17]): 100
- Barnyardgrass plant response rating (0 to 100 scale, 0 is no effect, 100 is complete control) (barnyardgrass [3]; 125 g ai/ha): 60
- Barnyardgrass plant response rating (barnyardgrass [3]; [17]): 100
- Plant response rating (0 to 100), Crabgrass, Large (large (Lg) crabgrass; [16]): 5
- Crabgrass, Large plant response rating (large (Lg) crabgrass; [18]): 10
- Plant response rating, Crabgrass, Large (large (Lg) crabgrass; [19]): 5
- Plant response rating, Crabgrass, Large (large (Lg) crabgrass; [20]): 5
- Plant response rating (0 to 100), Chickweed (chickweed; [16]): 45
- Chickweed plant response rating (chickweed; [18]): 50
- Plant response rating, Chickweed (chickweed; [19]): 60
- Plant response rating, Chickweed (chickweed; [20]): 70
- Plant response rating (0 to 100), Blackgrass (blackgrass; [16]): 0
- Blackgrass plant response rating (blackgrass; [18]): 0
- Plant response rating, Blackgrass (blackgrass; [19]): 10
- Plant response rating, Blackgrass (blackgrass; [20]): 5
- Plant response rating (0 to 100), Johnsongrass (johnsongrass; [16]): 5
- Johnsongrass plant response rating (johnsongrass; [18]): 10
- Plant response rating, Johnsongrass (johnsongrass; [19]): 10
- Plant response rating, Johnsongrass (johnsongrass; [20]): 5
- Foxtail, Giant plant response rating (0 to 100 scale) (giant foxtail [4]; 125 g ai/ha): 100
- Foxtail, Giant plant response rating (giant foxtail [4]; [17]): 100
- Plant response rating (0 to 100), Corn (corn; [16]): 0
- Corn plant response rating (corn; [18]): 5
- Plant response rating, Corn (corn; [19]): 5
- Plant response rating, Corn (corn; [20]): 5
- Plant response rating (0 to 100), Foxtail, Giant (giant foxtail [5]; [16]): 5
- Foxtail, Giant plant response rating (giant foxtail [5]; [18]): 5
- Plant response rating, Foxtail, Giant (giant foxtail [5]; [19]): 10
- Plant response rating, Foxtail, Giant (giant foxtail [5]; [20]): 5
- Morningglory plant response rating (morningglory [6]; [11]): 80
- Plant response rating, Morningglory (morningglory [6]; [15]): 100
- Plant response rating, Sedge, Umbrella (sedge, umbrella): 85
- Pigweed plant response rating (0 to 100 scale) (pigweed [7]; 125 g ai/ha): 100
- Pigweed plant response rating (pigweed [7]; [17]): 100
- Pigweed plant response rating (pigweed [8]; [11]): 100
- Plant response rating, Pigweed (pigweed [8]; [15]): 100

Structure (SMILES): Fc1cnc(Oc2ccccc2-n2cc(C(F)(F)F)cn2)nc1 [Compound 47]
- Plant response rating, Barnyardgrass (barnyardgrass [1]): 10
- Plant response rating (0 to 100), Ryegrass, Italian (Italian ryegrass; 125 g ai/ha, postemergence): 0
- Plant response rating (0 to 100), Ryegrass, Italian (Italian ryegrass; 250 g ai/ha, postemergence): 0
- Plant response rating, Ryegrass, Italian (Italian ryegrass; [9]): 0
- Plant response rating, Ryegrass, Italian (Italian ryegrass; [10]): 0
- Plant response rating, Morningglory (morningglory [2]; [11]): 0
- Morningglory plant response rating (morningglory [2]; [12]): 100
- Plant response rating, Barnyardgrass (barnyardgrass [3]; [11]): 20
- Barnyardgrass plant response rating (barnyardgrass [3]; [12]): 100
- Plant response rating (0 to 100), Crabgrass, Large (large (Lg) crabgrass; 125 g ai/ha, postemergence): 5
- Plant response rating (0 to 100), Crabgrass, Large (large (Lg) crabgrass; 250 g ai/ha, postemergence): 10
- Plant response rating, Crabgrass, Large (large (Lg) crabgrass; [14]): 5
- Plant response rating, Crabgrass, Large (large (Lg) crabgrass; Postemergence, 62 g ai/ha): 5
- Plant response rating (0 to 100), Chickweed (chickweed; 125 g ai/ha, postemergence): 50
- Plant response rating (0 to 100), Chickweed (chickweed; 250 g ai/ha, postemergence): 50
- Plant response rating, Chickweed (chickweed; [14]): 5
- Plant response rating, Chickweed (chickweed; Postemergence, 62 g ai/ha): 5
- Plant response rating (0 to 100), Blackgrass (blackgrass; 125 g ai/ha, postemergence): 5
- Plant response rating (0 to 100), Blackgrass (blackgrass; 250 g ai/ha, postemergence): 40
- Plant response rating, Blackgrass (blackgrass; [14]): 0
- Plant response rating, Blackgrass (blackgrass; Postemergence, 62 g ai/ha): 0
- Plant response rating (0 to 100), Johnsongrass (johnsongrass; 125 g ai/ha, postemergence): 5
- Plant response rating (0 to 100), Johnsongrass (johnsongrass; 250 g ai/ha, postemergence): 5
- Plant response rating, Johnsongrass (johnsongrass; [14]): 0
- Plant response rating, Johnsongrass (johnsongrass; Postemergence, 62 g ai/ha): 5
- Plant response rating, Foxtail, Giant (giant foxtail [4]; [11]): 100
- Foxtail, Giant plant response rating (giant foxtail [4]; [12]): 100
- Plant response rating (0 to 100), Corn (corn; 125 g ai/ha, postemergence): 5
- Plant response rating (0 to 100), Corn (corn; 250 g ai/ha, postemergence): 5
- Plant response rating, Corn (corn; [14]): 0
- Plant response rating, Corn (corn; Postemergence, 62 g ai/ha): 0
- Plant response rating (0 to 100), Foxtail, Giant (giant foxtail [5]; 125 g ai/ha, postemergence): 25
- Plant response rating (0 to 100), Foxtail, Giant (giant foxtail [5]; 250 g ai/ha, postemergence): 80
- Plant response rating, Foxtail, Giant (giant foxtail [5]; [14]): 10
- Plant response rating, Foxtail, Giant (giant foxtail [5]; Postemergence, 62 g ai/ha): 25
- Plant response rating, Morningglory (morningglory [6]; [11]): 80
- Plant response rating, Morningglory (morningglory [6]; [21]): 100
- Plant response rating, Sedge, Umbrella (sedge, umbrella): 70
- Plant response rating, Pigweed (pigweed [7]; [11]): 100
- Pigweed plant response rating (pigweed [7]; [12]): 100
- Plant response rating, Pigweed (pigweed [8]; [11]): 100
- Plant response rating, Pigweed (pigweed [8]; [21]): 100
